The values below come from patent US11712434B2, “Compound having anti-cancer effect, and preparation method therefor and use thereof” (3D MEDICINES (BEIJING) CO., LTD., priority 2016, dated 2023).

One data set has as its system liver cancer. Particulars: liver cancer patients, phase III; cited from earlier work.
In the next data set the test system is NCI-H526. The experiment in a line: Cell proliferation assay (Alamar Blue). Format: cell-based. Particulars: Homo sapiens, 144 h; NCI-H526 tumor cell line; 6 days culture. How it is done:
(§1) 1. Instruments and Materials • Thermo 311 CO2 incubator; Haier biosafety cabinet; Molecular Devices microplate reader; Xiangyi brand L530 desktop low speed centrifuge; Olympus IX51 inverted fluorescence microscope, DMEM, RPMI 1640, MEM, DMEM/F12 1:1 medium, Fetal bovine serum, 0.25% trypsin solution, phosphate buffer (Thermo Fisher Shanghai Co., Ltd.); sigma dimethyl sulfoxide (DMSO), resazurin; 54 commercial tumor cell lines (including 26 liver cancer cell lines). Experimental drugs: compounds 1-12 and active drug Linifanib; chemotherapeutic drug Doxorubicin (HY-15142; Shanghai Qianyuan Biomedical Technology Co., Ltd.).
(§2) 2. Experimental Methods • 2.1 Cultivation of Different Cell Lines • 54 cell lines were cultured in a culture medium containing fetal bovine serum and placed in a 5% CO2 incubator at 37° C. for incubation. The cells were all grown in an adherent state, and the growth was observed under an inverted microscope, and subculture was performed when the cell confluence rate reached 80%-90%. The proportion and quantity of passage were determined by experimental needs. The ratio of subculture of this cell line was generally 1:2^˜1:3. • 2.2 Inhibition Effect on the Proliferation of Different Tumor Cell Lines • Cell test: 54 cell lines in logarithmic growth phase were inoculated in 96-well culture plates at 500^˜1×10^4/well (the optimal seeding density of each cell line was determined in pre-experiment), After incubating at 37° C. for 4 h in a 5% CO2 humidification incubator, added 10 μL of compounds 1-12 or Linifanib to each well, and tested 9 drug concentration gradients for each compound (diluted from the highest concentration of the test by 3.16 times). The solubility of each compound was different at a starting concentration of 100 or 30 μM, respectively. The QC reference compound Doxorubicin was added simultaneously to each cell line test, and the final drug concentrations were 10, 3.16, 1, 0.31, 0.1, 0.03, 0.01, 0.003, and 0.001 μM, respectively. In addition, a positive control group (100% inhibition) and a negative control group (0% inhibition) were set at the same time. The drug group was repeated for 2 wells per concentration, and the positive control group and the negative control group were repeated for 6 wells. After the culture was continued for 6 days in the incubator, AlamarBlue test operation was followed; • AlamarBlue test procedure: Incubated with 10 μL of AlamarBlue reagent per well for 1-4 h, shook for 1-2 min, MD microplate reader EX: 560 nm, EM: 590 nm wavelength to measure fluorescence, recorded the results, calculated the cell inhibition rate of the compound of the invention. Cell inhibition rate (%)=(A0% inhibition−A administration)/(A0% inhibition−A100% inhibition)×100%, and then using the method of nonlinear regression using GraphPad Prism 5.0 or MATILAB software (usually using four parameters) to graph and obtain a drug dose response curve to obtain an IC50 value of the compound of the present invention acting on a cancer cell line.
(Alamar Blue is a resazurin reagent that responds to reducing activity.)

The next data set has as its system NCI-H661. The experiment in a line: Cell proliferation assay (Alamar Blue). Format: cell-based. The following applies: Homo sapiens, 144 h; NCI-H661 tumor cell line; 6 days culture. How it is done:
as §1, §2

The next data set concerns NCI-H716. The experiment in a line: Cell proliferation assay (Alamar Blue). The following applies: Homo sapiens, 144 h; NCI-H716 tumor cell line; 6 days culture. It counts as cell-based. The protocol:
as §1, §2

The next data set deals with NCI-H1703. The experiment in a line: Cell proliferation assay (Alamar Blue). It counts as cell-based. The following applies: Homo sapiens, 144 h; NCI-H1703 (lung cancer cells); 6 days culture. The protocol:
as §1, §2

The next data set has as its system NCI-H1648. The experiment in a line: Cell proliferation assay (Alamar Blue). Format: cell-based. Particulars: Homo sapiens, 144 h; NCI-H1648 tumor cell line; 6 days culture. The protocol:
as §1, §2

The test system of the next data set is NCI-H2170. Put plainly: Cell proliferation assay (Alamar Blue). It counts as cell-based. Particulars: Homo sapiens, 144 h; NCI-H2170 tumor cell line; 6 days culture. How it is done:
as §1, §2

A word on the IC50: it is the concentration at which inhibition is half-maximal.

Regarding `CNC(=O)c1cc(Oc2ccc(NC(=O)Nc3ccc(Cl)c(C(F)(F)F)c3)cc2)ccn1` [Sorafenib], in the data set on liver cancer, the “ORR (overall response rate)” value is on record as 6.9% and the “TTP (time to progression)” value was 4.0 months.

On to `Cc1ccc(F)c(NC(=O)Nc2ccc(-c3cccc4[nH]nc(N)c34)cc2)c1` [Linifanib, reference compound], for which, in the data set with liver cancer, the “toxicity and side effects” value is on record as “greater than Sorafenib”. Moreover, the concentration for half-maximal inhibition (IC50) was determined as 7.8 µM in the data set on NCI-H526; 13.3 µM in the data set with NCI-H661; 4.1 µM in the data set with NCI-H716; 0.02 µM in the data set on NCI-H1703; 7.17 µM in the data set on NCI-H1648; 4 µM with NCI-H2170.
